Values quoted from earlier work as cited in patent US20250213572A1, “TYK2 INHIBITORS AND USES THEREOF” (Takeda Pharmaceutical Company Limited, priority 2022, published 2025).

How the values were obtained:
[1] = test system: moderate-to-severe psoriasis; settings: 30 mg twice-daily; at four weeks; cited from earlier work
[2] = test system: moderate-to-severe ulcerative colitis; settings: 6 mg once-daily; cited from earlier work
psoriasis = settings: dose ranges used in the Phase 3 trials; cited from earlier work

Molecule: CCOc1cc([C@@H](CS(C)(=O)=O)N2C(=O)c3cccc(NC(C)=O)c3C2=O)ccc1OC [Otezla®]
- mean PASI reduction [1]: 37%

Molecule: deucravacitinib [reference compound]
- primary endpoint of clinical remission at 12 weeks [2]: did not achieve its primary endpoint of clinical remission at 12 weeks
- increase of responses at 12 weeks compared to four weeks (psoriasis): three- to four-fold

Molecule: guselkumab: an anti-IL-23 monoclonal antibody
- increase of responses at 12 weeks compared to four weeks (psoriasis): three- to four-fold
